Holding throughout (assay type): in vivo
Experiment [1] concerns pigweed (Amaranthus retroflexus). The experiment is described as follows: Test A postemergence. Particulars: Amaranthus retroflexus, post-emergence, 240 h, 125 g ai/ha, postemergence, visual injury rating after approximately 10 d; read-out: Pigweed plant response rating (0 to 100 scale, 0 no effect, 100 complete control). A digest of the protocol:
(§1)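 In a loam soil and sand blend, planted seeds got a preemergence directed soil spray, and young plants at the one- to two-leaf stage, 2–10 cm high, got a postemergence application; ~10 d greenhouse hold; injury rated visually, 0 = none, 100 = complete control.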

In experiment [2] the test system is corn (Zea mays). The experiment can be described thus: Test A postemergence. Particulars: Zea mays, post-emergence, 240 h, 125 g ai/ha, postemergence, visual injury rating after approximately 10 d; read-out: Corn plant response rating (0 to 100 scale, 0 no effect, 100 complete control). A digest of the protocol:
as §1

In experiment [3] the test system is ragweed (common ragweed, Ambrosia elatior). The experiment is described as follows: Test A postemergence. Particulars: Ambrosia artemisiifolia, post-emergence, 240 h, 125 g ai/ha, postemergence, visual injury rating after approximately 10 d; read-out: Ragweed plant response rating (0 to 100 scale, 0 no effect, 100 complete control). A digest of the protocol: as §1

The test system of experiment [4] is wheat (Triticum aestivum). The experiment can be described thus: Test A postemergence. The conditions noted are these: Triticum aestivum, post-emergence, 240 h, 125 g ai/ha, postemergence, visual injury rating after approximately 10 d; read-out: Wheat plant response rating (0 to 100 scale, 0 no effect, 100 complete control). A digest of the protocol:
as §1

In experiment [5] the test system is ryegrass, Italian (Italian ryegrass, Lolium multiflorum). The experiment can be described thus: Test A postemergence. Particulars: Lolium multiflorum, post-emergence, 240 h, 125 g ai/ha, postemergence, visual injury rating after approximately 10 d; read-out: Ryegrass, Italian plant response rating (0 to 100 scale, 0 no effect, 100 complete control). A digest of the protocol:
as §1

The test system of experiment [6] is barnyardgrass (Echinochloa crus-galli). The experiment is described as follows: Test A postemergence. Particulars: Echinochloa crus-galli, post-emergence, 240 h, 125 g ai/ha, postemergence, visual injury rating after approximately 10 d; read-out: Barnyardgrass plant response rating (0 to 100 scale, 0 no effect, 100 complete control). In outline: as §1
For experiment [7], the system named is giant foxtail (Setaria faberii). The experiment can be described thus: Test A postemergence. The conditions noted are these: Setaria faberi, post-emergence, 240 h, 125 g ai/ha, postemergence, visual injury rating after approximately 10 d; read-out: Foxtail, Giant plant response rating (0 to 100 scale, 0 no effect, 100 complete control). In outline:
as §1

Experiment [8] has as its system blackgrass (Alopecurus myosuroides). The experiment is described as follows: Test A postemergence. Particulars: Alopecurus myosuroides, post-emergence, 240 h, 125 g ai/ha, postemergence, visual injury rating after approximately 10 d; read-out: Blackgrass plant response rating (0 to 100 scale, 0 no effect, 100 complete control). A digest of the protocol: as §1
The subject of experiment [9] is Galium (catchweed bedstraw, Galium aparine). The experiment can be described thus: Test A postemergence. Particulars: Galium, post-emergence, 240 h, 125 g ai/ha, postemergence, visual injury rating after approximately 10 d; read-out: Galium plant response rating (0 to 100 scale, 0 no effect, 100 complete control). A digest of the protocol:
as §1

The test system of experiment [10] is pigweed (Amaranthus retroflexus). The experiment is described as follows: Test A preemergence. The conditions noted are these: Amaranthus retroflexus, pre-emergence, 240 h.
Experiment [11] deals with ragweed (common ragweed, Ambrosia elatior). The experiment can be described thus: Test A preemergence. The conditions noted are these: Ambrosia artemisiifolia, pre-emergence, 240 h. A digest of the protocol: as §1
Experiment [12] deals with ryegrass, Italian (Italian ryegrass, Lolium multiflorum). The experiment is described as follows: Test A preemergence. Particulars: Lolium multiflorum, pre-emergence, 240 h. In outline: as §1
Experiment [13] has as its system Kochia (Kochia scoparia). The experiment can be described thus: Test A preemergence. The conditions noted are these: Bassia scoparia, pre-emergence, 240 h. In outline:
as §1

In experiment [14] the test system is barnyardgrass (Echinochloa crus-galli). The experiment is described as follows: Test A preemergence. The conditions noted are these: Echinochloa crus-galli, pre-emergence, 240 h. A digest of the protocol:
as §1

For experiment [15], the system named is giant foxtail (Setaria faberii). The experiment is described as follows: Test A preemergence. The conditions noted are these: Setaria faberi, pre-emergence, 240 h. A digest of the protocol:
as §1

The source of these data is patent US12077503B2, “Substituted cyclic amides and their use as herbicides” (FMC CORPORATION, priority 2015, dated 2024).

Regarding `CN1C[C@H](c2cccc(C3CC3)c2)[C@@H](C(=O)Nc2ccccc2S(C)(=O)=O)C1=O` [Compound 817], the pest or weed control at 125 g/ha is 0% in [1]; 0% in [3]; 30% in experiment [5]; 90% in experiment [6]; 90% in experiment [7]; 40% in [8]. Besides, the pest or weed control at 125 g/ha was determined as 40% in experiment [9]; 0% in experiment [10] (125 g ai/ha, preemergence, 0 to 100 scale where 0 is no effect and 100 is complete control, read-out: Pigweed plant response rating); 20% in experiment [11] (125 g ai/ha, preemergence, 0 to 100 scale where 0 is no effect and 100 is complete control, read-out: Ragweed plant response rating); 20% in experiment [12] (125 g ai/ha, preemergence, 0 to 100 scale where 0 is no effect and 100 is complete control, read-out: Ryegrass, Italian plant response rating); 50% in [13] (125 g ai/ha, preemergence, 0 to 100 scale where 0 is no effect and 100 is complete control, read-out: Kochia plant response rating); 90% in experiment [14] (125 g ai/ha, preemergence, 0 to 100 scale where 0 is no effect and 100 is complete control, read-out: Barnyardgrass plant response rating). Besides, the pest or weed control at 125 g/ha in experiment [15] (125 g ai/ha, preemergence, 0 to 100 scale where 0 is no effect and 100 is complete control, read-out: Foxtail, Giant plant response rating) is 90%. Further, the plant injury at 125 g/ha in experiment [2] and in experiment [4] was 50% each time. Besides, the pest or weed control at 500 g/ha in experiment [10] (500 g ai/ha, Preemergence, visual injury vs untreated controls after approximately 10 d, read-out: Pigweed plant response rating (0 to 100 scale where 0 is no effect and 100 is complete control)) is 80%; in [11] (500 g ai/ha, Preemergence, visual injury vs untreated controls after approximately 10 d, read-out: Ragweed plant response rating (0 to 100 scale where 0 is no effect and 100 is complete control)), 50%; in [12] (500 g ai/ha, Preemergence, visual injury vs untreated controls after approximately 10 d, read-out: Ryegrass, Italian plant response rating (0 to 100 scale where 0 is no effect and 100 is complete control)) it was 40%; in experiment [13] (500 g ai/ha, Preemergence, visual injury vs untreated controls after approximately 10 d, read-out: Kochia plant response rating (0 to 100 scale where 0 is no effect and 100 is complete control)) it was 70%; in [14] (500 g ai/ha, Preemergence, visual injury vs untreated controls after approximately 10 d, read-out: Barnyardgrass plant response rating (0 to 100 scale where 0 is no effect and 100 is complete control)) it was 90%; in [15] (500 g ai/ha, Preemergence, visual injury vs untreated controls after approximately 10 d, read-out: Foxtail, Giant plant response rating (0 to 100 scale where 0 is no effect and 100 is complete control)), 90%.
